In data set [1] the test system is corn (variety: Pioneer). Kind of data set: Phytotoxicity Test Example 1: compositions dripped into the whorl of corn plants, plant length. To be noted: 10,000 ppm. The data set is classed as in vivo. On the procedure:
Liquid compositions comprising 10,000 ppm of mefentrifluconazole, 1.25 or 10% by volume of an oil adjuvant and water (hereinafter referred to as Present Composition 7 and Present Composition 8) were prepared by diluting mefentrifluconazole SC and an oil adjuvant (COC: Agri-Dex, containing 82% of heavy range paraffinic oil, 17% of surfactant, and 1% of other components, manufactured by Helena), respectively, with water and mixing them. Similarly to the Present Composition 7 and 8, liquid compositions (hereinafter referred to as Present Composition 9 and Present Composition 10) were prepared by replacing Agri-Dex with Sundance II (MSO, containing 90% of methylated seed oil and 10% of alkyl and aryl alkoxylates and phosphate esters). […]
A soil was filled into a plastic pot, and corn (variety: Pioneer) was seeded therein, and grown in a greenhouse for 4 days. […] After dripping, the plants were placed in the greenhouse for 8 days, then the plant lengths were measured. […]
From the plant lengths in each of the treated plants and the non-treated plants, the relative length of the compositions was determined according to the following “Formula 2”. […]

The test system of data set [2] is corn (variety: Pioneer). The data set is described as follows: Phytotoxicity Test Example 2: compositions sprayed onto corn plants, plant length. To be noted: 2,000 ppm. The data set is classed as in vivo. On the procedure: A liquid composition comprising 2,000 ppm of mefentrifluconazole, 10% by volume of an oil adjuvant and water (hereinafter referred to as Present Composition 13) were prepared by diluting mefentrifluconazole SC and an oil adjuvant (COC: Agri-Dex, containing 82% of heavy range paraffinic oil, 17% of surfactant, and 1% of other components, manufactured by Helena) with water and mixing them. Similarly to the Present Composition 13, a liquid compositions (hereinafter referred to as Present Composition 14) were prepared by replacing Agri-Dex with Sundance II (MSO, containing 90% of methylated seed oil and 10% of alkyl and aryl alkoxylates and phosphate esters). Similarly to the Present Composition 13, a liquid composition (hereinafter referred to as Present Composition 15) were prepared by replacing Agri-Dex with Destiny (HSOC, containing 50% of methylated seed oil, 42% of sorbitan fatty acid esters and high fructose corn syrup, and 8% of other ingredients). […]
A soil was filled into a plastic pot, and corn (variety: Pioneer) was seeded therein, and grown in a greenhouse for 4 days. […] After spraying, the plants were placed in the greenhouse for 8 days, then the plant lengths were measured. […]
From the plant lengths in each of the treated plants and the non-treated plants, the relative length of the compositions was determined according to the above “Formula 2”.

Turning to `N#CC(CCc1ccc(Cl)cc1)(Cn1cncn1)c1ccccc1` (stereo not shown) [fenbuconazole], the “Effect of addition of oil adjuvants on retardation of corn plant” value with corn (variety: Pioneer) [1] (oil adjuvants 1.25 or 10% by volume) is “severely enhanced the retardation”. In addition, in the data set with corn (variety: Pioneer) [1] (without adjuvant), the “Retardation of corn plant without adjuvant” value was “retarded corn plant slightly”. In the data set with corn (variety: Pioneer) [2] (oil adjuvants 10% by volume), the “Effect of addition of oil adjuvants on corn plant length” value is “enhanced the retardation”. The “Effect on plant length without adjuvant” value in the data set with corn (variety: Pioneer) [2] (without adjuvant) is recorded as “did not effect on plant length”.

The record behind these values is patent publication US11317629B2, “Liquid composition comprising mefentrifluconazole” (SUMITOMO CHEMICAL COMPANY, LIMITED, priority 2019, dated 2022).
